{
  "source": "patent US20120003119A1",
  "about": "“ANTIMICROBIAL PEPTIDES” (priority 2007, published 2012)",
  "origin": "cited, not measured here",
  "key": {"animal red blood cells": {"system": "animal red blood cells", "settings": "melittin isolated from bee venom"}, "[1]": {"settings": "combined with either magainin I or magainin II in a 1:1 molar ratio"}, "Pseudomonas aeruginosa": {"system": "Pseudomonas aeruginosa", "settings": "tested against the bacteria Pseudomonas aeruginosa; relative to XPF"}},
  "data": [
    {"molecule": "CC[C@H](C)[C@H](NC(=O)CN)C(=O)NCC(=O)N[C@@H](C)C(=O)N[C@H](C(=O)N[C@@H](CC(C)C)C(=O)N[C@@H](CCCCN)C(=O)N[C@H](C(=O)N[C@@H](CC(C)C)C(=O)N[C@H](C(=O)N[C@H](C(=O)NCC(=O)N[C@@H](CC(C)C)C(=O)N1CCC[C@H]1C(=O)N[C@@H](C)C(=O)N[C@@H](CC(C)C)C(=O)N[C@H](C(=O)N[C@@H](CO)C(=O)N[C@@H](Cc1c[nH]c2ccccc12)C(=O)N[C@H](C(=O)N[C@@H](CCCCN)C(=O)N[C@@H](CCCNC(=N)N)C(=O)N[C@@H](CCCCN)C(=O)N[C@@H](CCCNC(=N)N)C(=O)N[C@@H](CCC(N)=O)C(=O)N[C@@H](CCC(N)=O)C(N)=O)[C@@H](C)CC)[C@@H](C)CC)[C@@H](C)O)[C@@H](C)O)C(C)C)C(C)C", "note": "[melittin]", "values": [
      {"measurement": "lytic to both microorganisms and animal red blood cells", "setting": "animal red blood cells", "value": "very lytic"}
    ]},
    {"molecule": "PGLa", "values": [
      {"measurement": "antimicrobial activity increased", "setting": "[1]", "value": "20-50 fold"},
      {"measurement": "times more active than XPF", "setting": "Pseudomonas aeruginosa", "value": "4-5 times"}
    ]}
  ]
}
